Bounds are passed on as bounds.

In test [1] the test system is HeLa cells (cervical cancer). The test is described as follows: Cell proliferation measurement (Cell Titer Glo), HeLa. The class given is cell-based. As to conditions: Homo sapiens, 72 h treatment, read-out: Anti-proliferation IC50 HeLa (Cervical cancer). The essentials: (§1)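 Cells (1000/well; 500 for HeLa) plated overnight at 37 °C, then exposed to a ≥10-point compound dilution series for 72 h at 37 °C, DMSO 0.3% final as vehicle. Viability read by CellTiter-Glo luminescence; IC50 from 4-parameter fit against untreated wells.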
(In general: In ATP-based viability assays light output follows the ATP content of the culture.)

For the next test, the target named is T1, human full length PDE3A (Homo sapiens, UniProt Q14432).
T1 construct: Sf9 cells overexpressing human full length PDE3A; purchased SB Drug Discovery, UK; host or cells: Sf9 cells (cell extract)
The test is described as follows: PDE3A enzyme inhibition (3H-cAMP Scintillation Proximity Assay). The class given is biochemical. The following applies: PDE3A cell extract from Sf9 cells, 60 min room temperature; read-out: Target IC50 PDE3A IC50. Put shortly: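 Sf9 cell extract overexpressing human full-length PDE3A, diluted for linear kinetics (<70% substrate used), in 50 mM Tris/HCl pH 7.5, 8.3 mM MgCl2, 1.7 mM EDTA, 0.2% BSA. [8-3H]cAMP substrate, 60 min at room temperature, yttrium SPA bead read-out; IC50 from sigmoidal curves of % activity.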
A general note: In a scintillation proximity assay essentially only radioactivity close to the scintillant gives light.

The next test deals with SK-MEL-3 (melanoma). The test is described as follows: Cell proliferation measurement (Cell Titer Glo), SK-MEL-3. The class given is cell-based. The following applies: Homo sapiens, SK-MEL3, SK-MEL-3 cells, 72 h treatment, read-out: Anti-proliferation IC50 SK-MEL-3 (melanoma). Put shortly: as §1
The target of a further test is T2, human full length PDE3B (Homo sapiens, UniProt Q13370).
T2 construct: Sf9 cells overexpressing human full length PDE3B; purchased SB Drug Discovery, UK; host or cells: Sf9 cells (cell extract)
The test is described as follows: PDE3B enzyme inhibition (3H-cAMP Scintillation Proximity Assay). The class given is biochemical. As to conditions: PDE3B cell extract from Sf9 cells, 60 min room temperature; read-out: Target IC50 PDE3B IC50. The essentials:
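SPA with Sf9 cell extract overexpressing human full-length PDE3B, diluted for linear kinetics and <70% substrate turnover, in 50 mM Tris/HCl pH 7.5, 8.3 mM MgCl2, 1.7 mM EDTA, 0.2% BSA. [8-3H]cAMP substrate, 60 min at room temperature, stopped with yttrium SPA beads. IC50 from sigmoidal fit of % activity vs log concentration.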

T2 sequence (Q13370 whole entry): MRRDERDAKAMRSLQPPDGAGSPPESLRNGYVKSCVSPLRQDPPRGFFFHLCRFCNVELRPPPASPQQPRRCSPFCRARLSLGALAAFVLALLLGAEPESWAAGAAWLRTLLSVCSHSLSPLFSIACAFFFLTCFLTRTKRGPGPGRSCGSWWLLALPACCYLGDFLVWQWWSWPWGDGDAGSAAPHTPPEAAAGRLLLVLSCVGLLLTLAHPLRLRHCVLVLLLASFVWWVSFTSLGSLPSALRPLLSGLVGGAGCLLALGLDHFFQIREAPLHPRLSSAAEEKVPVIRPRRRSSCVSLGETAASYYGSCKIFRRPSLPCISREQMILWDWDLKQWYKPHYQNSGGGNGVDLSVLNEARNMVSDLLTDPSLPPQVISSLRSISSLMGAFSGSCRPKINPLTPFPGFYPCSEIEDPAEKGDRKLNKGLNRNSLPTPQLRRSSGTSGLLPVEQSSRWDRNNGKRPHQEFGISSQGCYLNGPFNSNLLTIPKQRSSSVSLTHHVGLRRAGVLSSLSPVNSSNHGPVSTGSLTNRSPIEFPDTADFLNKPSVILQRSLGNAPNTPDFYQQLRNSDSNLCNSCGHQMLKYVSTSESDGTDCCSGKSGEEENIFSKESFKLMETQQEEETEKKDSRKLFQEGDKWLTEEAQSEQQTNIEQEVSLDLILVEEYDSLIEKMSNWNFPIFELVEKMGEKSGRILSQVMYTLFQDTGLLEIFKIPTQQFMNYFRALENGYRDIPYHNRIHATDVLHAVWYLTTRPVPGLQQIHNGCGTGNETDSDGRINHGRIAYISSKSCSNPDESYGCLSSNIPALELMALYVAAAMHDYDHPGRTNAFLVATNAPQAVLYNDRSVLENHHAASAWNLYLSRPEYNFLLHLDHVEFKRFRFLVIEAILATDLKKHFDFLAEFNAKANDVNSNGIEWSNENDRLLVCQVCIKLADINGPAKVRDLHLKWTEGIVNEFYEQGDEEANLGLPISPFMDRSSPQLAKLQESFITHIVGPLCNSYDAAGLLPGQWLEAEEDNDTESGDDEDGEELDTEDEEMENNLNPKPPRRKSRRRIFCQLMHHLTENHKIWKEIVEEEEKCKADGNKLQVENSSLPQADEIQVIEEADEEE
T1 sequence (Q14432 whole entry): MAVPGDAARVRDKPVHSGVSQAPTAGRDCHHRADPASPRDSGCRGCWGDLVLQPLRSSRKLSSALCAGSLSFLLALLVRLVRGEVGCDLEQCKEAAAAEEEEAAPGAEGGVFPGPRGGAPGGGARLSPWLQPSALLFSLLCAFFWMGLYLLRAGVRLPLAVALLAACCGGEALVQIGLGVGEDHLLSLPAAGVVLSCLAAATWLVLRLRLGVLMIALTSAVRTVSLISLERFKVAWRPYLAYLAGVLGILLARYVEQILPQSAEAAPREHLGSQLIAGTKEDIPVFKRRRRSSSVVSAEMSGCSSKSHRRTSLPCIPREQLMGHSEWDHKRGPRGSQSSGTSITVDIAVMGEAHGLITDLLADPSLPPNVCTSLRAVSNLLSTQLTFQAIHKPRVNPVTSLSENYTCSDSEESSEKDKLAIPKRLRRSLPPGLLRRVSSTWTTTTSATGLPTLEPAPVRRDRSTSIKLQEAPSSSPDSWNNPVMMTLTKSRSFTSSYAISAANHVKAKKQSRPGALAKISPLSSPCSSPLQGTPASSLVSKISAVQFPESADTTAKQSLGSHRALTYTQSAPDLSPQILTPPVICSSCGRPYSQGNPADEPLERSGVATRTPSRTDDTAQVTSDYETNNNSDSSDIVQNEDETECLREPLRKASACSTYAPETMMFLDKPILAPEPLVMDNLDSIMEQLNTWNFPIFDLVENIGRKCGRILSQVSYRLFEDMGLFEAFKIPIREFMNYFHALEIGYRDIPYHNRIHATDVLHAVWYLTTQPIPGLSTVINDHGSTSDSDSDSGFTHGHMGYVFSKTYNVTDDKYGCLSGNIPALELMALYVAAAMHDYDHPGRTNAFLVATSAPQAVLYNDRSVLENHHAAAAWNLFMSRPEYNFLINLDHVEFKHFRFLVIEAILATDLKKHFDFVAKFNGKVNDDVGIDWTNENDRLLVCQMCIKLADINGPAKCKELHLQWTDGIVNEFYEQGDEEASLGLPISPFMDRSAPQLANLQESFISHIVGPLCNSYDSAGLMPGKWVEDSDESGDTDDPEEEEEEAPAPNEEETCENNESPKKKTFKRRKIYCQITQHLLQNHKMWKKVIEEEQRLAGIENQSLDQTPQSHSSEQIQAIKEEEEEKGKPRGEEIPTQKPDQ

For the compound `Cc1cc(C2=NNC(=O)CC2)ccc1-c1cc(F)c(F)cc1F` [Example 95, 6-(2′,4′,5′-trifluoro-2-methyl[1,1′-biphenyl]-4-yl)-4,5-dihydropyridazin-3(2H)-one], the IC50 came to 9.32 nM in test [1], 180 nM on human full length PDE3A, 60.7 nM in the test on SK-MEL-3 (melanoma) and 200 nM at human full length PDE3B.

Turning to `Cc1cc(C2=NNC(=O)CC2)ccc1-c1cc(F)c(F)c(F)c1` [Example 96, 6-(3′,4′,5′-trifluoro-2-methyl[1,1′-biphenyl]-4-yl)-4,5-dihydropyridazin-3(2H)-one], the IC50 in test [1] was 18.5 nM; on human full length PDE3A, 310 nM; in the test with SK-MEL-3 (melanoma), > 100 nM; at human full length PDE3B, 260 nM.

As to `Cc1cc(C2=NNC(=O)CC2)ccc1-c1ccc(F)c(F)c1F` [Example 97, 6-(2′,3′,4′-trifluoro-2-methyl[1,1′-biphenyl]-4-yl)-4,5-dihydropyridazin-3(2H)-one], the IC50 in test [1] worked out at 12.1 nM; on human full length PDE3A, 170 nM; with SK-MEL-3 (melanoma), 82 nM; on human full length PDE3B, 120 nM.

Regarding `Cc1cc(C2=NNC(=O)CC2)ccc1-c1cc(F)ccc1F` [Example 98, 6-(2′,5′-difluoro-2-methyl[1,1′-biphenyl]-4-yl)-4,5-dihydropyridazin-3(2H)-one], the IC50 is 12.7 nM in test [1], 180 nM at human full length PDE3A, 64.3 nM in the test on SK-MEL-3 (melanoma) and 120 nM on human full length PDE3B.

Turning to `Cc1cc(C2=NNC(=O)CC2)ccc1-c1ccccc1C#N` [Example 99, 2′-methyl-4′-(6-oxo-1,4,5,6-tetrahydropyridazin-3-yl)[1,1′-biphenyl]-2-carbonitrile], the IC50 in test [1] was 39.9 nM; on human full length PDE3A it was 280 nM; with SK-MEL-3 (melanoma) it was > 100 nM; on human full length PDE3B it was 530 nM.

With `Cc1cc(C2=NNC(=O)CC2)ccc1-c1ccc(C#N)cc1` [Example 100, 2′-methyl-4′-(6-oxo-1,4,5,6-tetrahydropyridazin-3-yl)[1,1′-biphenyl]-4-carbonitrile], the IC50 is 22.5 nM in test [1], 58 nM at human full length PDE3A, > 100 nM in the test with SK-MEL-3 (melanoma) and 59 nM at human full length PDE3B.

In the case of `Cc1cc(C2=NNC(=O)CC2)ccc1-c1cccc(O)c1` [Example 101, 6-(3′-hydroxy-2-methyl[1,1′-biphenyl]-4-yl)-4,5-dihydropyridazin-3(2H)-one], the IC50 worked out at 14.6 nM in test [1], 67 nM on human full length PDE3A, 36.3 nM with SK-MEL-3 (melanoma) and 67 nM at human full length PDE3B.

Consider `Cc1cc(C2=NNC(=O)CC2)ccc1-c1ccccc1O` [Example 102, 6-(2′-hydroxy-2-methyl[1,1′-biphenyl]-4-yl)-4,5-dihydropyridazin-3(2H)-one], for which the IC50 in test [1] was 23.4 nM; on human full length PDE3A it was 460 nM; in the test with SK-MEL-3 (melanoma), > 100 nM; on human full length PDE3B, 555 nM.

As to `Cc1cc(C2=NNC(=O)CC2)ccc1-c1cccc(N)c1` [Example 103, 6-(3′-amino-2-methyl[1,1′-biphenyl]-4-yl)-4,5-dihydropyridazin-3(2H)-one], the IC50 in test [1] was 36.8 nM; at human full length PDE3A, 170 nM; in the test on SK-MEL-3 (melanoma), > 100 nM; on human full length PDE3B, 200 nM.

With `Cc1cc(C2=NNC(=O)CC2)ccc1-c1cccc(F)c1F` [Example 104, 6-(2′,3′-difluoro-2-methyl[1,1′-biphenyl]-4-yl)-4,5-dihydropyridazin-3(2H)-one], the IC50 in test [1] stood at 13.4 nM; at human full length PDE3A it was 120 nM; in the test on SK-MEL-3 (melanoma), 70.8 nM; on human full length PDE3B, 120 nM.

As to `Cc1cc(C2=NNC(=O)CC2)ccc1-c1cc(F)cc(F)c1` [Example 105, 6-(3′,5′-difluoro-2-methyl[1,1′-biphenyl]-4-yl)-4,5-dihydropyridazin-3(2H)-one], the IC50 was 27.6 nM in test [1], 200 nM on human full length PDE3A, > 100 nM with SK-MEL-3 (melanoma) and 200 nM at human full length PDE3B.

Regarding `Cc1cc(C2=NNC(=O)CC2)ccc1-c1ccc(F)cc1F` [Example 106, 6-(2′,4′-difluoro-2-methyl[1,1′-biphenyl]-4-yl)-4,5-dihydropyridazin-3(2H)-one], the IC50 in test [1] is 4.79 nM; on human full length PDE3A, 110 nM; in the test with SK-MEL-3 (melanoma) it was 21.4 nM; at human full length PDE3B it was 100 nM.

Consider `Cc1ccc(-c2ccc(C3=NNC(=O)CC3)cc2C)cc1F` [Example 107, 6-(3′-fluoro-2,4′-dimethyl[1,1′-biphenyl]-4-yl)-4,5-dihydropyridazin-3(2H)-one], for which the IC50 amounted to 9.26 nM in test [1], 270 nM on human full length PDE3A, 52.4 nM with SK-MEL-3 (melanoma) and 190 nM at human full length PDE3B.

Turning to `Cc1cc(C2=NNC(=O)CC2)ccc1-c1ccc(Cl)c(N)c1` [Example 108, 6-(3′-amino-4′-chloro-2-methyl[1,1′-biphenyl]-4-yl)-4,5-dihydropyridazin-3(2H)-one], the IC50 in test [1] was determined as 6.54 nM; on human full length PDE3A, 160 nM; in the test with SK-MEL-3 (melanoma), 17.8 nM; at human full length PDE3B, 210 nM.

With `Cc1cc(C2=NNC(=O)CC2)ccc1-c1ccccc1F` [Example 109, 6-(2′-fluoro-2-methyl[1,1′-biphenyl]-4-yl)-4,5-dihydropyridazin-3(2H)-one], the IC50 turned out to be 5.63 nM in test [1], 150 nM on human full length PDE3A, 14.1 nM in the test on SK-MEL-3 (melanoma) and 150 nM at human full length PDE3B.

`Cc1cc(C2=NNC(=O)CC2)ccc1-c1c(F)cccc1F` [Example 110, 6-(2′,6′-difluoro-2-methyl[1,1′-biphenyl]-4-yl)-4,5-dihydropyridazin-3(2H)-one]: the IC50 in test [1] was found to be 8.57 nM; on human full length PDE3A, 240 nM; in the test with SK-MEL-3 (melanoma), 39.2 nM; on human full length PDE3B, 260 nM.

For `COc1ccccc1-c1ccc(C2=NNC(=O)CC2)cc1C` [Example 111, 6-(2′-methoxy-2-methyl[1,1′-biphenyl]-4-yl)-4,5-dihydropyridazin-3(2H)-one], the IC50 was 39.6 nM in test [1], 42 nM on human full length PDE3A, > 100 nM with SK-MEL-3 (melanoma) and 32 nM on human full length PDE3B.

On to `Cc1cc(C2=NNC(=O)CC2)ccc1-c1cccc(F)c1` [Example 112, 6-(3′-fluoro-2-methyl[1,1′-biphenyl]-4-yl)-4,5-dihydropyridazin-3(2H)-one], for which the IC50 in test [1] stood at 13.9 nM; on human full length PDE3A, 140 nM; with SK-MEL-3 (melanoma), 58.2 nM; on human full length PDE3B it was 110 nM.

As for `COc1cccc(-c2ccc(C3=NNC(=O)CC3)cc2C)c1` [Example 113, 6-(3′-methoxy-2-methyl[1,1′-biphenyl]-4-yl)-4,5-dihydropyridazin-3(2H)-one], the IC50 in test [1] was 33 nM; on human full length PDE3A it was 88 nM; with SK-MEL-3 (melanoma) it was > 100 nM; on human full length PDE3B, 91 nM.

With `Cc1cc(C2=NNC(=O)CC2)ccc1-c1cccc(C(N)=O)c1` [Example 114, 2′-methyl-4′-(6-oxo-1,4,5,6-tetrahydropyridazin-3-yl)[1,1′-biphenyl]-3-carboxamide], the IC50 in test [1] was 46.3 nM; at human full length PDE3A it was 36 nM; with SK-MEL-3 (melanoma), > 100 nM; at human full length PDE3B, 53 nM.

For `Cc1cc(C2=NNC(=O)CC2)ccc1-c1ccc(N)cc1` [Example 115, 6-(4′-amino-2-methyl[1,1′-biphenyl]-4-yl)-4,5-dihydropyridazin-3(2H)-one], the IC50 amounted to 7.87 nM in test [1], 47 nM at human full length PDE3A, 37.3 nM with SK-MEL-3 (melanoma) and 80 nM on human full length PDE3B.

As for `Cc1ccccc1-c1ccc(C2=NNC(=O)CC2)cc1C` [Example 116, 6-(2,2′-dimethyl[1,1′-biphenyl]-4-yl)-4,5-dihydropyridazin-3(2H)-one], the IC50 in test [1] turned out to be 8.39 nM; on human full length PDE3A it was 220 nM; in the test on SK-MEL-3 (melanoma), 42.9 nM; at human full length PDE3B, 170 nM.

Turning to `CCc1ccccc1-c1ccc(C2=NNC(=O)CC2)cc1C` [Example 117, 6-(2′-ethyl-2-methyl[1,1′-biphenyl]-4-yl)-4,5-dihydropyridazin-3(2H)-one], the IC50 was 51.4 nM in test [1], 540 nM on human full length PDE3A, > 100 nM with SK-MEL-3 (melanoma) and 440 nM on human full length PDE3B.

`COc1ccc(-c2ccc(C3=NNC(=O)CC3)cc2C)cn1` [Example 118, 6-[4-(6-methoxypyridin-3-yl)-3-methylphenyl]-4,5-dihydropyridazin-3(2H)-one]: the IC50 is 55.4 nM in test [1], 76 nM at human full length PDE3A, > 100 nM in the test with SK-MEL-3 (melanoma) and 90 nM at human full length PDE3B.

For `Cc1cc(-c2ccc(C3=NNC(=O)CC3)cc2C)ccc1F` [Example 119, 6-(4′-fluoro-2,3′-dimethyl[1,1′-biphenyl]-4-yl)-4,5-dihydropyridazin-3(2H)-one], the IC50 in test [1] is 65.8 nM; at human full length PDE3A it was 290 nM; in the test with SK-MEL-3 (melanoma), > 100 nM; at human full length PDE3B, 290 nM.
